These are literature values, as cited in EP2932963A1, “Stable pharmaceutical dosage forms comprising Levothyroxine sodium” (Uni-Pharma Kleon Tsetis Pharmaceutical Laboratories S.A., priority 2014, dated 2015).

Where two headings read alike, the source gives them in different places.

For data set [1] the following is noted: dependence on pH.

As for `N[C@@H](Cc1cc(I)c(Oc2cc(I)c(O)c(I)c2)c(I)c1)C(=O)O` [Levothyroxine], in data set [1], the aqueous solubility result is “reduces from pH 1 to 3 and increases above pH 7”. Further, the pKa runs as follows: (amino group) 9.96; (carboxyl group) 2.4; (phenolic group) 6.87.
